# In patent US8841483B2, “Compositions useful as inhibitors of voltage-gated sodium channels” (Vertex Pharmaceuticals Incorporated, priority 2006, dated 2014):
# Target: NaV1.8 (Homo sapiens, UniProt Q9Y5Y9)
# Experiment: Activity against NaV 1.8 channel (Table 3), optical membrane potential / electrophysiology assays
# Assay type: cell-based
# Procedure: Compounds of the invention are useful as antagonists of voltage-gated sodium ion channels. Antagonist properties of test compounds were assessed as follows. Cells expressing the NaV of interest were placed into microtiter plates. After an incubation period, the cells were stained with fluorescent dyes sensitive to the transmembrane potential. The test compounds were added to the microtiter plate. The cells were stimulated with either a chemical or electrical means ti evoke a NaV dependent membrane potential change from unblocked channels, which was detected and measured with trans-membrane potential-sensitive dyes. Antagonists were detected as a decreased membrane potential response to the stimulus. The optical membrane potential assay utilized voltage-sensitive FRET sensors described by Gonzalez and Tsien (See, Gonzalez, J. E. and R. Y. Tsien (1995) “Voltage sensing by fluorescence resonance energy transfer in single cells” Biophys J 69(4): 1272-80, and Gonzalez, J. E. and R. Y. Tsien (1997) “Improved indicators of cell membrane potential that use fluorescence resonance energy transfer” Chem Biol 4(4): 269-77) in combination with instrumentation for measuring fluorescence changes such as the Voltage/Ion Probe Reader (VIPR®) (See, Gonzalez, J. E., K. Oades, et al. (1999) “Cell-based assays and instrumentation for screening ion-channel targets” Drug Discov Today 4(9): 431-439).
# The following is an example of how NaV1.3 inhibition activity is measured using the optical membrane potential method #2. Other subtypes are performed in an analogous mode in a cell line expressing the NaV of interest.
# HEK293 cells stably expressing NaV1.3 are plated into 96-well microtiter plates. After an appropriate incubation period, the cells are stained with the voltage sensitive dyes CC2-DMPE/DiSBAC2(3) as follows.
# 2X CC2-DMPE=20 μM CC2-DMPE: 10 mM CC2-DMPE is vortexed with an equivalent volume of 10% pluronic, followed by vortexing in required amount of HBSS containing 10 mM HEPES. Each cell plate will require 5 mL of 2X CC2-DMPE. 50 μL of 2X CC2-DMPE is to wells containing washed cells, resulting in a 10 μM final staining concentration. The cells are stained for 30 minutes in the dark at RT.
# 2X DISBAC2(3) with ABSC1=6 μM DISBAC2(3) and 1 mM ABSC1: The required amount of 10 mM DISBAC2(3) is added to a 50 ml conical tube and mixed with 1 μL 10% pluronic for each mL of solution to be made and vortexed together. Then HBSS/HEPES is added to make up 2X solution. Finally, the ABSC1 is added.
# The 2X DiSBAC2(3) solution can be used to solvate compound plates. Note that compound plates are made at 2X drug concentration. Wash stained plate again, leaving residual volume of 50 μL. Add 50 uL/well of the 2X DiSBAC2(3) w/ABSC1. Stain for 30 minutes in the dark at RT.
# The electrical stimulation instrument and methods of use are described in ION Channel Assay Methods PCT/US01/21652, herein incorporated by reference. The instrument comprises a microtiter plate handler, an optical system for exciting the coumarin dye while simultaneously recording the coumarin and oxonol emissions, a waveform generator, a current- or voltage-controlled amplifier, and a device for inserting electrodes in well. Under integrated computer control, this instrument passes user-programmed electrical stimulus protocols to cells within the wells of the microtiter plate.
# Assay Protocol • 1. Insert or use electrodes into each well to be assayed. • 2. Use the current-controlled amplifier to deliver stimulation wave pulses for 3 s. Two seconds of pre-stimulus recording are performed to obtain the un-stimulated intensities. Five seconds of post-stimulation recording are performed to examine the relaxation to the resting state.
# Data are analyzed and reported as normalized ratios of background-subtracted emission intensities measured in the 460 nm and 580 nm channels. Background intensities are then subtracted from each assay channel. […]
row,SMILES,IC50 [µM]
1,Cc1ccccc1C(=O)Nc1cccc(S(N)(=O)=O)c1 [Compound 69],> 10
2,NS(=O)(=O)c1cccc(NC(=O)c2ccc(Cl)cc2Br)c1 [Compound 70],> 10
3,NS(=O)(=O)c1cccc(NC(=O)c2ccccc2CCc2ccccc2)c1 [Compound 71],2 to 10
4,CN(C)S(=O)(=O)c1cccc(NC(=O)c2ccc(C(C)(C)C)cc2)c1 [Compound 72],> 10
5,NS(=O)(=O)c1cccc(NC(=O)c2cccc(-n3cccn3)c2)c1 [Compound 73],> 10
6,NS(=O)(=O)c1cccc(NC(=O)c2cccc(OC(F)(F)F)c2)c1 [Compound 74],> 10
7,Cc1ccc(-c2ccccc2C(=O)Nc2cccc(S(N)(=O)=O)c2)cc1 [Compound 75],2 to 10
8,CC(C)COC(=O)NC1CCN(c2ccccc2C(=O)Nc2cccc(S(N)(=O)=O)c2)CC1 [Compound 76],> 10
9,COc1cc(C)ccc1C(=O)Nc1cccc(S(N)(=O)=O)c1 [Compound 77],> 10
10,"CC(C)(C)c1ccc(C(=O)Nc2cccc(S(N)(=O)=O)c2)c(Oc2ccc(F)cc2)c1 [Compound 78, 2-(4-Fluorophenoxy)-4-tert-butyl-N-(3-(aminosulfonyl)phenyl)benzamide]",< 2
11,CC(C)(C)c1ccc(C(=O)Nc2ccc(Cl)c(S(N)(=O)=O)c2)cc1 [Compound 79],< 2
12,CC(C)Cc1ccc(C(=O)Nc2cccc(S(N)(=O)=O)c2)cc1 [Compound 80],< 2
13,NS(=O)(=O)c1cccc(NC(=O)c2ccc(C(F)(F)F)cc2C(F)(F)F)c1 [Compound 81],> 10
14,NS(=O)(=O)c1cccc(NC(=O)c2ccccc2Nc2cccc(-c3nnn[nH]3)c2)c1 [Compound 82],> 10
15,"NS(=O)(=O)c1cccc(NC(=O)c2ccccc2C2CCCCC2)c1 [Compound 83, 2-Cyclohexyl-N-(3-(aminosulfonyl)phenyl)benzamide]",< 2
16,COc1cccc(Oc2ccccc2C(=O)Nc2cccc(S(N)(=O)=O)c2)c1 [Compound 84],2 to 10
17,COc1ccccc1C(=O)Nc1cccc(S(N)(=O)=O)c1 [Compound 85],> 10
18,NS(=O)(=O)c1cccc(NC(=O)c2cccc(N3CCNC3=O)c2)c1 [Compound 86],> 10
19,CC(C)(C)c1ccc(C(=O)Nc2cc(S(N)(=O)=O)ccc2Cl)cc1 [Compound 87],> 10
20,COc1ccc(Oc2cc(C(C)(C)C)ccc2C(=O)Nc2cccc(S(N)(=O)=O)c2)cc1 [Compound 88],< 2

row,SMILES,IC50 [µM]
1,NS(=O)(=O)c1cccc(NC(=O)c2ccccc2Oc2cccc(N3CCOCC3)c2)c1 [Compound 89],> 10
2,"CN(C(=O)c1ccc(C(C)(C)C)cc1)c1cccc(S(N)(=O)=O)c1 [Compound 90, 4-tert-Butyl-N-methyl-N-(3-(aminosulfonyl)phenyl)benzamide]",> 10
3,Cc1ccccc1Oc1ccccc1C(=O)Nc1cccc(S(N)(=O)=O)c1 [Compound 91],< 2
4,NS(=O)(=O)c1cccc(NC(=O)c2ccccc2N2CCOCC2)c1 [Compound 92],> 10
5,CC(C)(C)c1ccc(C(=O)Nc2cccc(S(N)(=O)=O)c2)c(Br)c1 [Compound 93],< 2
6,NS(=O)(=O)c1cccc(NC(=O)c2ccccc2-c2ccccc2)c1 [Compound 94],> 10
7,NS(=O)(=O)c1cccc(NC(=O)c2ccccc2Oc2ccc(F)cc2)c1 [Compound 95],< 2
8,CCCCc1ccc(C(=O)Nc2cccc(S(N)(=O)=O)c2)cc1 [Compound 96],> 10
9,CC(C)(C)c1ccc(C(=O)Nc2cccc(S(N)(=O)=O)c2)c(Oc2ccccc2N2CCCCC2)c1 [Compound 97],< 2
10,CC(C)(C)c1ccc(C(=O)Nc2cccc(S(N)(=O)=O)c2)c(Oc2ccccc2N2CCOCC2)c1 [Compound 98],< 2
11,Cc1ccc(Oc2cc(C(C)(C)C)ccc2C(=O)Nc2cccc(S(N)(=O)=O)c2)c(C)n1 [Compound 99],< 2
12,NS(=O)(=O)c1cccc(NC(=O)c2ccc(C(F)(F)F)cc2O)c1 [Compound 100],> 10
13,CC(C)(C)c1ccc(C(=O)Nc2cccc(S(N)(=O)=O)c2)c(Oc2ccc(F)cc2Cl)c1 [Compound 101],< 2
14,CC(=O)c1ccccc1Oc1cc(C(C)(C)C)ccc1C(=O)Nc1cccc(S(N)(=O)=O)c1 [Compound 102],2 to 10
15,CCOc1cc(C(C)(C)C)ccc1C(=O)Nc1cccc(S(N)(=O)=O)c1 [Compound 103],< 2
16,CC(C)(C)c1ccc(C(=O)Nc2cccc(S(N)(=O)=O)c2)c(Oc2ccccc2C(F)(F)F)c1 [Compound 104],< 2
17,CC(C)(C)c1ccc(C(=O)Nc2cccc(S(N)(=O)=O)c2)c(Sc2ccccc2)c1 [Compound 105],< 2
18,COc1cc(C(C)(C)C)ccc1C(=O)Nc1cccc(S(N)(=O)=O)c1 [Compound 106],< 2
19,CC(C)(C)c1ccc(C(=O)Nc2cccc(S(N)(=O)=O)c2)c(Oc2ccc(F)cc2F)c1 [Compound 107],< 2
20,Cc1cc(F)ccc1Oc1cc(C(C)(C)C)ccc1C(=O)Nc1cccc(S(N)(=O)=O)c1 [Compound 108],< 2

row,SMILES,IC50 [µM]
1,Cc1ccc(Oc2cc(C(C)(C)C)ccc2C(=O)Nc2cccc(S(N)(=O)=O)c2)c(C)c1 [Compound 109],< 2
2,"CC(C)(C)c1ccc(C(=O)Nc2cccc(S(N)(=O)=O)c2)c([S+]([O-])c2ccccc2)c1 (centres unmarked) [Compound 110, 4-tert-Butyl-2-(phenylsulfinyl)-N-(3-sulfamoylphenyl)benzamide]",2 to 10
3,CC(C)(C)c1ccc(C(=O)Nc2cccc(S(N)(=O)=O)c2)c(Oc2ccccc2C#N)c1 [Compound 111],2 to 10
4,"CC(C)(C)c1ccc(C(=O)Nc2cccc(S(N)(=O)=O)c2)c(S(=O)(=O)c2ccccc2)c1 [Compound 112, 4-tert-Butyl-2-(phenylsulfonyl)-N-(3-sulfamoylphenyl)benzamide]",2 to 10
5,CC(C)(C)c1ccc(C(=O)Nc2cccc(S(N)(=O)=O)c2)c(Oc2ccc(Cl)cc2Cl)c1 [Compound 113],< 2
6,Cc1ncccc1Oc1cc(C(C)(C)C)ccc1C(=O)Nc1cccc(S(N)(=O)=O)c1 [Compound 114],< 2
7,CC(C)(C)c1ccc(C(=O)Nc2cccc(S(N)(=O)=O)c2)c(Oc2ccc(C(F)(F)F)nc2)c1 [Compound 115],< 2
8,CC(C)(C)c1ccc(C(=O)Nc2cccc(S(N)(=O)=O)c2)c(Oc2ccc(C(F)(F)F)cc2Cl)c1 [Compound 116],2 to 10
9,CCOc1ccc(C(=O)Nc2cccc(S(N)(=O)=O)c2)c(OCC)c1 [Compound 117],> 10
10,CC(C)(C)c1ccc(C(=O)Nc2cccc(S(N)(=O)=O)c2)c(Oc2ccc(C(N)=O)cc2)c1 [Compound 118],> 10
11,Cc1cccc(Oc2cc(C(C)(C)C)ccc2C(=O)Nc2cccc(S(N)(=O)=O)c2)c1 [Compound 119],< 2
12,NS(=O)(=O)c1cccc(NC(=O)c2ccc(Cl)cc2Cl)c1 [Compound 120],> 10
13,CN(C)S(=O)(=O)c1cccc(NC(=O)c2ccc(C(C)(C)C)cc2Oc2ccc(F)cc2Cl)c1 [Compound 121],< 2
14,CC(=O)c1ccccc1C(=O)Nc1cccc(S(N)(=O)=O)c1 [Compound 122],> 10
15,COc1ccc(C(=O)Nc2cccc(S(N)(=O)=O)c2)c(OC)c1 [Compound 123],> 10
16,Cc1cc(Oc2cc(C(C)(C)C)ccc2C(=O)Nc2cccc(S(N)(=O)=O)c2)cc(C)n1 [Compound 124],> 10
17,COC(=O)c1ccc(Oc2cc(C(C)(C)C)ccc2C(=O)Nc2cccc(S(N)(=O)=O)c2)cc1 [Compound 125],< 2
18,CC(C)(C)NS(=O)(=O)c1cccc(NC(=O)c2ccc(C(C)(C)C)cc2Br)c1 [Compound 126],2 to 10
19,CS(=O)(=O)c1ccc(C(=O)Nc2cccc(S(N)(=O)=O)c2)c(Cl)c1 [Compound 127],> 10
